{"source": "paper PMC11838007", "about": "“Contribution of telacebec to novel drug regimens in a murine tuberculosis model” (Antimicrobial Agents and Chemotherapy, 2024)", "key": {"Rv0678_J4 mutant": {"tested_on": "Rv0678_J4 mutant", "type": "cell-based, Mycobacterium tuberculosis"}, "Rv0678_2 mutant": {"tested_on": "Rv0678_2 mutant", "type": "cell-based, Mycobacterium tuberculosis"}}, "data": [{"smiles": "CCc1nc2ccc(Cl)cn2c1C(=O)NCc1ccc(N2CCC(c3ccc(OC(F)(F)F)cc3)CC2)cc1", "note": "[Telacebec, telacebec]", "values": [{"measurement": "MIC", "setting": "Rv0678_J4 mutant", "value": 4, "unit": "ng/mL"}, {"measurement": "MIC", "setting": "Rv0678_2 mutant", "value": 8, "unit": "ng/mL"}]}]}
